Data from US9546383B2, “Human pluripotent embryonic stem cells produced by nuclear transfer using a somatic cell nucleus treated with HVJ-E extract and an oocyte from a donor cycle that produced 15 or fewer oocytes” (priority 2013, dated 2017).
Where a SMILES comes first, the peptide text is derived from it. [ ]: non-standard residue; d: D form. d(hArg(Et2)) = CCN=C(NCC)NCCCC[C@@H](N)C(=O)O; hArg(Et2) = CCN=C(NCC)NCCCC[C@H](N)C(=O)O; dPhe(4-Cl) = N[C@H](Cc1ccc(Cl)cc1)C(=O)O; d2Nal = N[C@H](Cc1ccc2ccccc2c1)C(=O)O; d3Pal = N[C@H](Cc1cccnc1)C(=O)O

Experiments:
human SCNT embryos [1] = test: Human SCNT with caffeine during enucleation and fusion: spindle formation and blastocyst development; format: cell-based
Method: As expected, somatic cell nuclei introduced into oocyte cytoplasts under these conditions efficiently formed spindle-like structures detectable under birefringence microscope (83.3%, 10/12) (FIG. 2D). […] Human SCNT blastocysts in this group contained visible, prominent ICMs similar to that observed for IVF embryos (FIG. 2E).
Enucleation of MII spindles were performed as described previously (Tachibana et al., 2013 supra). […] The droplet was covered with tissue culture oil and oocytes maintained at 37° C. for 10-15 min before spindle removal. The dish was then mounted on the stage of an inverted microscope (Olympus IX71®) equipped with a stage warmer (http://www.tokaihit.com) Narishige micromanipulators, Oosight™ Imaging System (www.cri-inc.com) and a laser objective (www.hamiltonthorne.com). An oocyte was positioned by a holding pipette so that the spindle was situated between the 2 o'clock and 4 o'clock position. The zona pellucida next to the spindle was drilled with a laser pulse and an enucleation pipette was inserted through the opening. A small amount of cytoplasm surrounded by plasma membrane and contacting spindle was aspirated into the pipette. Next, a disaggregated fibroblast was aspirated into a micropipette and briefly transferred to the drop containing HVJ-E extract (Ishihara Sangyo Kaisha Ltd). […]

monkey SCNT blastocysts = test: Monkey NT-ESC isolation after treatment with TSA; format: cell-based, rhesus macaque
Method: (§1) However, the quality of such blastocysts and their potential to give rise to stable ESCs remained unknown until this current disclosure. A total of 16 monkey SCNT blastocysts produced with TSA treatment were plated on mitotically inactivated mouse embryonic fibroblast (mEF) feeders. None of these blastocysts produced NT-ESC lines (Table 1). Lower TSA concentrations as well as shorter exposure times to TSA had no effect on monkey SCNT blastocyst development and ESC isolation.
(§2) Oocyte collections, SCNT, embryo culture and NT-ESC isolation procedures were performed as previously described (Byrne et al, 2007 supra; Sparman et al., 2009, supra; Sparman et al, 2010 supra).

Monkey SCNT embryo [2] = conditions: 37.5 nM TSA; from 4% without; cited from earlier work
Monkey SCNT embryo [3] = test: Monkey SCNT embryo development after treatment with trichostatin A (TSA); format: cell-based, rhesus macaque
Method: as §1, §2

[4] = Ovarian stimulation of egg donors under different pituitary suppression regimens; format: in vivo, human; conditions: antagonist 6 cycles, agonist 4 cycles
Method: Optimal stimulation protocols giving the best chance of producing oocytes capable of producing NT-ESCs using SCNT were sought. The impact of GnRH agonists and antagonists used to suppress the pituitary function of egg donors were first assessed. Prior to stimulations, the anti-mullerian hormone (AMH) level and antral follicle counts (AFC) were measured for each individual egg donor (Table S3). Donors with higher AMH and AFC profiles are associated with high ovarian reserve and received the GnRH agonist Lupron® (4 cycles) while the remaining donors were provided with the GnRH antagonist (ganirelix, 6 cycles) (Table 3).
Ovarian stimulation protocols followed established clinical IVF guidelines as we described previously (Tachibana et al, 2013 supra). Briefly, a combination of recombinant follicle stimulating hormone (rFSH) and human menopausal gonadotropins (hMG) and either GnRH agonist (Lupron®, Tap Pharmaceutical Products, Lake Forest, Ill.) or antagonist (Ganirelix®, Merck & Co, Whitehouse Station, N.J.) were given. Human chorionic gonadotropin (hCG) was prescribed to trigger oocyte maturation. Self administration of injectable rFSH (sc, Follistim®, Merck & Co, Whitehouse Station, N.J.) commenced on cycle day 2 or 3 and continued for approximately 8-12 days. The starting gonadotropin dose was 75-125 IU/day and 1-2 A hMG (sc, Menopur®, Ferring Pharmaceuticals, Inc. Parsippany, N.J.); the dose was adjusted per individual response using an established step-down regimen until the day of hCG injection. Ovarian response and follicular growth were monitored by transvaginal ultrasound and measurements of serum estradiol levels. When two or more follicles reached >18 mm in diameter, subjects received hCG ([…], sc, Ovidrel®, EMDSerono, Rockland, Mass.) to trigger maturation. Thirty-six hours following hCG injection, subjects underwent oocyte retrieval via transvaginal follicular aspirations.

human SCNT embryos [5] = test: Human SCNT embryo development and NT-ESC derivation by GnRH agonist or antagonist treatment of oocyte donor; format: cell-based; conditions: oocytes from treated donors
Method: A retrospective analysis of ovarian stimulation procedures was conducted in order to determine the effect of the number of oocytes retrieved per cycle on human SCNT embryo development and NT-ESC derivation outcomes. Oocyte donation cycles were divided into three groups based on the range of collected mature MII oocytes—10 or fewer oocytes per cycle (5 donors), between 11 to 15 oocytes (2 donors) and more than 16 oocytes per cycle (3 donors). While survival after enucleation, fusion, pronuclear formation and cleavage of SCNT embryos were similar between these groups, more embryos derived from the donors producing ≧16 MII oocytes/cycle arrested after the 8-cell stage than the other two groups (FIG. 5A). In addition, the quality of SCNT blastocysts also negatively correlated with the number of collected oocytes per cycle. […] The peak estradiol (E2) level measured in blood of egg donors prior to hCG priming positively correlated with the subsequent yield of oocytes (FIG. 10). […]
Optimal stimulation protocols giving the best chance of producing oocytes capable of producing NT-ESCs using SCNT were sought. The impact of GnRH agonists and antagonists used to suppress the pituitary function of egg donors were first assessed. Prior to stimulations, the anti-mullerian hormone (AMH) level and antral follicle counts (AFC) were measured for each individual egg donor (Table S3). […]

[6] = TSA 10 nM, 12 h, 23 plated blastocysts

Cn1c(=O)c2c(ncn2C)n(C)c1=O [caffeine]
blastocyst development of caffeine treated embryos (human SCNT embryos [1]; 1.25 mM caffeine during enucleation and fusion): 23.5%
somatic cell nuclei forming spindle-like structures (human SCNT embryos [1]; 1.25 mM caffeine during enucleation and somatic cell fusion, 10/12): 83.3%

CC(/C=C/C(=O)NO)=C\[C@@H](C)C(=O)c1ccc(N(C)C)cc1 [TSA, trichostatin A]
# NT-ESCs (monkey SCNT blastocysts; TSA 5 nM, 12 h, 7 plated blastocysts): 0
# NT-ESCs (monkey SCNT blastocysts; [6]): 3
# NT-ESCs (%) (monkey SCNT blastocysts; [6]): 13%
# NT-ESCs (monkey SCNT blastocysts; TSA 10 nM, 24 h, 4 plated blastocysts): 0
development of monkey SCNT embryos to blastocysts (Monkey SCNT embryo [2]): 18%
8-cell (%) (Monkey SCNT embryo [3]; TSA 5 nM for 12 h, N 212): (92.8) %
8-cell, number (Monkey SCNT embryo [3]; TSA 5 nM for 12 h, N 212): 192
Blastocysts (%) (Monkey SCNT embryo [3]; TSA 5 nM for 12 h, N 212): 14.5%
Blastocysts, number (Monkey SCNT embryo [3]; TSA 5 nM for 12 h, N 212): 30
CM (%) (Monkey SCNT embryo [3]; TSA 5 nM for 12 h, N 212): (26.0) %
CM, number (Monkey SCNT embryo [3]; TSA 5 nM for 12 h, N 212): 58
PN (%) (Monkey SCNT embryo [3]; TSA 5 nM for 12 h, N 212): (98.6) %
PN, number (Monkey SCNT embryo [3]; TSA 5 nM for 12 h, N 212): 207
fused (%) (Monkey SCNT embryo [3]; TSA 5 nM for 12 h, N 212): (99.1) %
fused, number (Monkey SCNT embryo [3]; TSA 5 nM for 12 h, N 212): 210
8-cell (%) (Monkey SCNT embryo [3]; TSA 10 nM for 12 h, N 571): (93.7) %
8-cell, number (Monkey SCNT embryo [3]; TSA 10 nM for 12 h, N 571): 494
Blastocysts (%) (Monkey SCNT embryo [3]; TSA 10 nM for 12 h, N 571): 18.8%
Blastocysts, number (Monkey SCNT embryo [3]; TSA 10 nM for 12 h, N 571): 99
CM (%) (Monkey SCNT embryo [3]; TSA 10 nM for 12 h, N 571): (27.9) %
CM, number (Monkey SCNT embryo [3]; TSA 10 nM for 12 h, N 571): 147
PN (%) (Monkey SCNT embryo [3]; TSA 10 nM for 12 h, N 571): (94.4) %
PN, number (Monkey SCNT embryo [3]; TSA 10 nM for 12 h, N 571): 535
fused (%) (Monkey SCNT embryo [3]; TSA 10 nM for 12 h, N 571): (99.3) %
fused, number (Monkey SCNT embryo [3]; TSA 10 nM for 12 h, N 571): 567
8-cell (%) (Monkey SCNT embryo [3]; TSA 10 nM for 24 h, N 108): (97.1) %
8-cell, number (Monkey SCNT embryo [3]; TSA 10 nM for 24 h, N 108): 100
Blastocysts (%) (Monkey SCNT embryo [3]; TSA 10 nM for 24 h, N 108): 24.3%
Blastocysts, number (Monkey SCNT embryo [3]; TSA 10 nM for 24 h, N 108): 25
CM (%) (Monkey SCNT embryo [3]; TSA 10 nM for 24 h, N 108): (32.0) %
CM, number (Monkey SCNT embryo [3]; TSA 10 nM for 24 h, N 108): 33
PN (%) (Monkey SCNT embryo [3]; TSA 10 nM for 24 h, N 108): (100) %
PN, number (Monkey SCNT embryo [3]; TSA 10 nM for 24 h, N 108): 104
fused (%) (Monkey SCNT embryo [3]; TSA 10 nM for 24 h, N 108): (95.4) %
fused, number (Monkey SCNT embryo [3]; TSA 10 nM for 24 h, N 108): 104
8-cell (%) (Monkey SCNT embryo [3]; TSA 37.5 nM for 24 h, N 511): (90.3) %
8-cell, number (Monkey SCNT embryo [3]; TSA 37.5 nM for 24 h, N 511): 418
Blastocysts (%) (Monkey SCNT embryo [3]; TSA 37.5 nM for 24 h, N 511): 18.4%
Blastocysts, number (Monkey SCNT embryo [3]; TSA 37.5 nM for 24 h, N 511): 85
CM (%) (Monkey SCNT embryo [3]; TSA 37.5 nM for 24 h, N 511): (23.1) %
CM, number (Monkey SCNT embryo [3]; TSA 37.5 nM for 24 h, N 511): 107
PN (%) (Monkey SCNT embryo [3]; TSA 37.5 nM for 24 h, N 511): (99.0) %
PN, number (Monkey SCNT embryo [3]; TSA 37.5 nM for 24 h, N 511): 498
fused (%) (Monkey SCNT embryo [3]; TSA 37.5 nM for 24 h, N 511): (98.4) %
fused, number (Monkey SCNT embryo [3]; TSA 37.5 nM for 24 h, N 511): 503
effect on blastocyst rates (Monkey SCNT embryo [3]; reducing TSA concentration to 10 nM or shortening exposure from 24 h to 12 h): did not affect blastocyst rates

CCNC(=O)[C@@H]1CCCN1C(=O)[C@H](CCCNC(=N)N)NC(=O)[C@H](CC(C)C)NC(=O)[C@@H](CC(C)C)NC(=O)[C@H](Cc1ccc(O)cc1)NC(=O)[C@H](CO)NC(=O)[C@H](Cc1c[nH]c2ccccc12)NC(=O)[C@H](Cc1c[nH]cn1)NC(=O)[C@@H]1CCC(=O)N1 [GnRH agonist]
Peak E2 [4]: 2709 ± 1597.3
SCNT embryo development beyond the 8-cell stage (human SCNT embryos [5]): impaired

CCN=C(NCC)NCCCC[C@H](NC(=O)[C@H](CC(C)C)NC(=O)[C@@H](CCCCNC(=NCC)NCC)NC(=O)[C@H](Cc1ccc(O)cc1)NC(=O)[C@H](CO)NC(=O)[C@@H](Cc1cccnc1)NC(=O)[C@@H](Cc1ccc(Cl)cc1)NC(=O)[C@@H](Cc1ccc2ccccc2c1)NC(C)=O)C(=O)N1CCC[C@H]1C(=O)N[C@H](C)C(N)=O [GnRH antagonist, ganirelix] (Ac-[d2Nal][dPhe(4-Cl)][d3Pal]SY[d(hArg(Et2))]L[hArg(Et2)]P[dA]-NH2)
# oocytes (MII oocytes collected per cycle, mean±SD) [4]: 11.7±5.6
Peak E2 [4]: 2568.2 ± 806.1
NT-ESC lines derived (human SCNT embryos [5]): six
